Counter-ions that a name gives are not always drawn. Values belong to the compound of their own block, whether it stands above or below them.
Columns and labels:
[1] = system: primary mouse splenocytes; conditions: wild type and Nrf2(-/-) splenocytes; cited from earlier work
PKCθ C322 = target: T1, PKCθ C322 (Homo sapiens, UniProt Q04759); assay: isoTOP-ABPP of compound-treated primary human T cells; format: cell-based; conditions: 50 μM, 4 h
T1 construct: endogenous in cells; host or cells: primary human T cells
Description: (§1) Cells were lysed by sonication and diluted to a concentration of 2 mg protein/mL. Protein concentrations were measured with the Bio-Rad DC™ protein assay reagents A and B (5000113, 5000114; Bio-Rad). 500 μL of proteome sample was treated with 100 μM of IA-alkyne probe using […] of a 10 mM DMSO stock. The labeling reactions were incubated at room temperature for 1 h upon which time the samples were conjugated to isotopically-labeled TEV-cleavable tags (TEV tags) by copper-catalyzed azide-alkyne cycloaddition (CuACC or ‘click chemistry’). 60 μL of heavy click chemistry reaction mixture was added to the DMSO-treated control sample and 60 μL of the light reaction mixture was added to the compound-treated sample. The click reaction mixture comprised TEV tags (10 μL of a 5 mM stock, light (fragment treated) or heavy (DMSO treated)), CuSO4 (10 μL of a 50 mM stock in water), and TBTA (30 μL of a 1.7 mM stock in 4:1 tBuOH:DMSO). To this was added TCEP (10 μL of a 50 mM stock). The reaction was performed for 1 h at room temperature.
(§2) The resulting pellets were resuspended in 500 μL of cold methanol by sonication and the heavy and light samples combined pairwise. Combined pellets were then washed with cold MeOH, after which the pellet was solubilized in PBS containing 1.2% SDS by sonication. The samples were heated at 90° C. for 5 min and subjected to streptavidin enrichment of probe-labeled proteins, sequential on-bead trypsin and TEV digestion, and liquid chromatography-tandem mass spectrometry (LC-MS/MS) according to the published isoTOP-ABPP protocols.
(§3) The quantification of heavy/light ratios (isoTOP-ABPP ratios, R values) was performed by in-house CIMAGE software using default parameters (3 MS1's per peak and signal to noise threshold of 2.5). Site-specific engagement of electrophilic compounds was assessed by blockade of IA-alkyne probe labeling. […] Overlapping peptides with the same labeled cysteine (for example, same local sequence around the labeled cysteines but different charge states, MudPIT segment numbers, or tryptic termini) were grouped together, and the median ratio from each group was recorded as the R value of the peptide for that run.

PRKDC C4045 = target: T2, PRKDC C4045 (Homo sapiens, UniProt P78527); assay: as above; format: cell-based; conditions: for R value (DMSO/DMF): PRKDC C4045 (P78527)
T2 construct: endogenous in cells; host or cells: primary human T cells
Description: as §1, §2, §3

[2] = system: intracellular GSH in primary human T cells; assay: Quantification of cellular glutathione (GSH) levels; format: cell-based; conditions: DMF 50 μM 2 h; BSO 2.5 mM 4 h
Description: Primary human T cells (2.5 million cells/mL, 20 mL per condition) were treated as indicated, harvested by centrifugation (500 g, 8 min, 4° C.), and washed twice with PBS. To the cell pellet was added 75 μL of lysis buffer. […] Protein concentrations were adjusted to at least 5 mg/mL and the assay performed according to manufacturer's instructions (Sigma-Aldrich, CS 1020). Data represent mean±SE for two biological replicates.

primary human T cells = assay: T cell activation markers CD25 and CD69 (flow cytometry); format: cell-based
Description: 96-well plates were coated with anti-CD3 (1:200; BioXcell) and anti-CD28 (1:500; 302933; BioLegend) in PBS (100 μL/well) overnight at 4° C. The plates were then washed twice with PBS and to each well was added 500,000 primary T cells in 100 μL of RPMI supplemented with 10% FBS, glutamine, and Pen-Strep. Cells were then treated with 100 μL of media containing compound at the indicated concentrations (final well volume of 200 μL). Cells were left at 37° C. in a 5% CO2 incubator for the indicated periods of time and harvested by centrifugation (500 g, 8 min, 4° C.), followed by washing with PBS.
Flow cytometry analysis of cell surface antigens was performed with the following antibodies: Pacific Blue-conjugated anti-CD8 (1:25 dilution; clone RPA-T8; BD Biosciences), APC-conjugated anti-CD4 (1:25 dilution; clone RPA-T4; eBioscience), phycoerythrin-conjugated anti-CD25 (1:25 dilution; clone BC96; eBioscience or PC61; BioLegend (PKCθ studies)), FITC-conjugated anti-CD69 (1:25 dilution; clone FN50; eBioscience). All antibodies were diluted in 1% FBS in PBS, and 50 μL of the stain solution was added to each well. […] Flow cytometry acquisition was performed with BD FACSDivam-driven BD™ LSR II flow cytometer (Becton, Dickinson and Company). Data was then analyzed with FlowJo software (Treestar Inc.). Data represent mean±SE for four-five experiments per group.

SMAD2 C81 (Q15796) = SMAD2 C81 (Q15796) (Homo sapiens, UniProt Q15796); assay: Competitive isoTOP-ABPP in situ; format: cell-based; conditions: fragment 2 at 200 μM, MDA-MB-231 cells
RRAGC C377 (Q9HB90) = RRAGC C377 (Q9HB90) (Homo sapiens, UniProt Q9HB90); assay: Competitive isoTOP-ABPP in situ; format: cell-based; conditions: fragment 2 at 200 μM, MDA-MB-231 cells
TIGAR = target: T3, TIGAR (Homo sapiens, UniProt Q9NQ88); assay: TIGAR activity assay; format: biochemical; conditions: WT-TIGAR, concentration series
T3 construct: His6 (N); made in house; host or cells: E. coli BL21(DE3)
Description: TIGAR activity assay was conducted as described in Gerin et al. The Biochemical Journal 458:439-448 (2014). Formation of 3PG (3-phosphoglycerate) production from 23BPG (2,3-bisphosphoglycerate) was measured spectrophotometrically on a TECAN plate reader, measuring decrease in absorbance at 340 nm in clear, flat-bottom 96 well microplate (Corning® Costar®). 2 μL of recombinant TIGAR (10 mg/mL) was diluted into 1 mL dilution buffer (25 mM HEPES, pH 7.1, 25 mM KCl, 1 mM MgCl2). 25 μL of diluted protein was incubated for 1 h with the indicated concentration of compound (1 μL, 25× stock in DMSO). Then 75 μL of assay mixture comprised of 25 mM HEPES (pH 7.1), 25 mM KCl, 1 mM MgCl2, 0.5 mM NADH, 1 mM DTT, 1 mM 23BPG, 1 mM ATP-Mg, the equivalent of 1 μL each of rabbit muscle GAPDH (4000 units/mL, Sigma, G5537) and yeast PG kinase (6300 units/mL, Sigma, P7634) was added to the protein and decrease in absorbance was monitored at 340 nm. The background, calculated from samples lacking TIGAR, was subtracted from samples containing TIGAR. Experiments were performed in quadruplicate.

[3] = anti-CD3, anti-CD28 stimulation, 8 h

T2 sequence (P78527 whole entry): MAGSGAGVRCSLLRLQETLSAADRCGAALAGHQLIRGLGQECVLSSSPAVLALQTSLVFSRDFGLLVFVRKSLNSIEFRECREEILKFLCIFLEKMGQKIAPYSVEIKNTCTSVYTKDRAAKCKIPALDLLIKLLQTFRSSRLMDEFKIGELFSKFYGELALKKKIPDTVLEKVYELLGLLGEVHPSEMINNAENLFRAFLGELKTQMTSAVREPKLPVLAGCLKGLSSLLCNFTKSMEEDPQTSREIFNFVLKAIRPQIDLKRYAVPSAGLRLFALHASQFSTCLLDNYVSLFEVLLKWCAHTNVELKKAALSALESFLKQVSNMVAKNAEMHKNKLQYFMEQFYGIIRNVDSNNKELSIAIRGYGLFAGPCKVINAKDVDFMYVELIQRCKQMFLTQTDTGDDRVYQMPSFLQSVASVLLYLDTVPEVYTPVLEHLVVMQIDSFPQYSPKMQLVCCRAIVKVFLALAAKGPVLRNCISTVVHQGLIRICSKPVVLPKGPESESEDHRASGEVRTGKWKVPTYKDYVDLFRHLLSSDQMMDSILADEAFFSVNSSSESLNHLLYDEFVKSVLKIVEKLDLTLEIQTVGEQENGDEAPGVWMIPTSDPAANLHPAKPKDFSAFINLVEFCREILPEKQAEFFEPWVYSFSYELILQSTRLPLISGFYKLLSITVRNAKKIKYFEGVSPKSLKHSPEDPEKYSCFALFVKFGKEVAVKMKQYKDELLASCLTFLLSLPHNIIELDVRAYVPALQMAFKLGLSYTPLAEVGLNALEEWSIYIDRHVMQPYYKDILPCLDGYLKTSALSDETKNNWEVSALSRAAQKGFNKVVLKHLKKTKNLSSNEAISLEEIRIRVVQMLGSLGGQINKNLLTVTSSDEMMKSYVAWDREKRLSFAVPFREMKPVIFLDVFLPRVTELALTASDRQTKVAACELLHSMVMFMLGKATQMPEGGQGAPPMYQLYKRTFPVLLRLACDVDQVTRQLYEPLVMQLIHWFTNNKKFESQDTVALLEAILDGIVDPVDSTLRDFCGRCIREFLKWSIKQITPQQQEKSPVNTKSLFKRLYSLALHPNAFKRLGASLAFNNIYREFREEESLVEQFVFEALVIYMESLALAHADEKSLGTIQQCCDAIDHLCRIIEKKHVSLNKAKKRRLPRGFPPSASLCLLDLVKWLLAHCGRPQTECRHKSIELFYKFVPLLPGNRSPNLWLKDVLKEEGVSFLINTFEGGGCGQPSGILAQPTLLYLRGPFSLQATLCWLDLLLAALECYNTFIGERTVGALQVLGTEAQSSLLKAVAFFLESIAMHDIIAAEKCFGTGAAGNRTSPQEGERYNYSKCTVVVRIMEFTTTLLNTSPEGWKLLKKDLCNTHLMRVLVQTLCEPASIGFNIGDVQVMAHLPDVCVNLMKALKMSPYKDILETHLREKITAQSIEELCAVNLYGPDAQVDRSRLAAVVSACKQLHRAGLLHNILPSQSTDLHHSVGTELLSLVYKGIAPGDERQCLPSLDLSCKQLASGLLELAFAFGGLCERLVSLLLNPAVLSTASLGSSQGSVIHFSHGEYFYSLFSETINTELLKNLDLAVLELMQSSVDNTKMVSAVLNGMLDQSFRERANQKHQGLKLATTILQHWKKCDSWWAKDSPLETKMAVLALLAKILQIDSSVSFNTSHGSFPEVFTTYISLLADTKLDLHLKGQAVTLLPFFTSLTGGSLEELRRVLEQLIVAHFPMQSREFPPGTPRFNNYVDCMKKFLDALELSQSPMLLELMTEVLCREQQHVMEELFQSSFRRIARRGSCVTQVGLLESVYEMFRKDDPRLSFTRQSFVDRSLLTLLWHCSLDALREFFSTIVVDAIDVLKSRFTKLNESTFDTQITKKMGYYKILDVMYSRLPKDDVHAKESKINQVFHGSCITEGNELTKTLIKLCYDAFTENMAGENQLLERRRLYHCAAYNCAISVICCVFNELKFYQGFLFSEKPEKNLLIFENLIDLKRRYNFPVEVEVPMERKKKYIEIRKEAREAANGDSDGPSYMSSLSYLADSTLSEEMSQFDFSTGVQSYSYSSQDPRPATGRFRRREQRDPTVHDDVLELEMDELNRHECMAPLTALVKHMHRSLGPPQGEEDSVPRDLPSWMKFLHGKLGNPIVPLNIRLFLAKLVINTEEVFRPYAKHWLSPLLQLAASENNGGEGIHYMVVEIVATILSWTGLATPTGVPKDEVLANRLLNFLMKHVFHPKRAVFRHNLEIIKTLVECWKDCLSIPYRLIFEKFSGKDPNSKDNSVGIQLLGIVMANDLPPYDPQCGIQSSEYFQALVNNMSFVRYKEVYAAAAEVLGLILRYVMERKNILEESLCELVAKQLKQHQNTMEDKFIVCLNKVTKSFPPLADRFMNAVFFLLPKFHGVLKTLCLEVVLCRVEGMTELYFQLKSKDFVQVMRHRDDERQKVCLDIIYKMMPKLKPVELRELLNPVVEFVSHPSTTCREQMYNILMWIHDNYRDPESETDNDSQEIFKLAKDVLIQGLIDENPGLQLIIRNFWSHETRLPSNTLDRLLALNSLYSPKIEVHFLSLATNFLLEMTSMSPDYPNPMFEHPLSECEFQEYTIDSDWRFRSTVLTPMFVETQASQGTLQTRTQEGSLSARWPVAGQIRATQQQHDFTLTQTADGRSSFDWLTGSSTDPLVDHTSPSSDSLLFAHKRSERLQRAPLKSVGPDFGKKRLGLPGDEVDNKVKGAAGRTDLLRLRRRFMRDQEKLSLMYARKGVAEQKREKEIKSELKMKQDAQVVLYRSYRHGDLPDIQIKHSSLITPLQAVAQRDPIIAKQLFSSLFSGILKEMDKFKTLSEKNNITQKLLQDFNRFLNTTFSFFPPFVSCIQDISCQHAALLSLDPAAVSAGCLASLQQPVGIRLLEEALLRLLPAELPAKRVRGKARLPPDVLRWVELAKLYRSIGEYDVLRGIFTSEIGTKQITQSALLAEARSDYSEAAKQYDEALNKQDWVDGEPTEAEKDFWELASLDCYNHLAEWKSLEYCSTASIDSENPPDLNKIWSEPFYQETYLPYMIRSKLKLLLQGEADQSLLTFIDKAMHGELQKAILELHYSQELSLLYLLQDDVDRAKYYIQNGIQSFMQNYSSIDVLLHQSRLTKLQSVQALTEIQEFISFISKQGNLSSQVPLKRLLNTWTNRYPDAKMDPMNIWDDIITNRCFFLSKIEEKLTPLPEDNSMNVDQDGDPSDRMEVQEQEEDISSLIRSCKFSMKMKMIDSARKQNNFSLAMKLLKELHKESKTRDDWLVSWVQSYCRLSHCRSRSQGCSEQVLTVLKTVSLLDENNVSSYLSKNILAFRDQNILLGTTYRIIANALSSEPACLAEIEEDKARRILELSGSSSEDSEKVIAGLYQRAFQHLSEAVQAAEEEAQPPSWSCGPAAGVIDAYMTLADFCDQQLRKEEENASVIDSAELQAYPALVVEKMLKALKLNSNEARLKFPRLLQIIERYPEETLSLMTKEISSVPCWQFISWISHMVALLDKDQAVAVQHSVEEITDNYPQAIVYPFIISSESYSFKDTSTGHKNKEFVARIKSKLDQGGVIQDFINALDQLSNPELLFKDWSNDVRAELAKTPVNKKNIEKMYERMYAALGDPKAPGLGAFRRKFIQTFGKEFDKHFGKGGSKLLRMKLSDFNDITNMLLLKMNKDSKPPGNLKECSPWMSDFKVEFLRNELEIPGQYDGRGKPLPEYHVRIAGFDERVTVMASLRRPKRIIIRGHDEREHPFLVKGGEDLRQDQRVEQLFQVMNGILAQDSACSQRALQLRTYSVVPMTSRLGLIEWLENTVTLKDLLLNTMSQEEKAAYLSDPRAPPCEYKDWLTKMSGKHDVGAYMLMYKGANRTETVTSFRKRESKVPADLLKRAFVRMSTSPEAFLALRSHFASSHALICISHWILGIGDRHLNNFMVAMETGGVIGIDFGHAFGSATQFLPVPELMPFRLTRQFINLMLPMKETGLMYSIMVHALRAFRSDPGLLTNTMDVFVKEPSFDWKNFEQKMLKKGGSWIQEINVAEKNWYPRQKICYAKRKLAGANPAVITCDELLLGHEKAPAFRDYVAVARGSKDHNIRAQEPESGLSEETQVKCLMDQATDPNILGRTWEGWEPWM
T3 sequence (Q9NQ88 whole entry): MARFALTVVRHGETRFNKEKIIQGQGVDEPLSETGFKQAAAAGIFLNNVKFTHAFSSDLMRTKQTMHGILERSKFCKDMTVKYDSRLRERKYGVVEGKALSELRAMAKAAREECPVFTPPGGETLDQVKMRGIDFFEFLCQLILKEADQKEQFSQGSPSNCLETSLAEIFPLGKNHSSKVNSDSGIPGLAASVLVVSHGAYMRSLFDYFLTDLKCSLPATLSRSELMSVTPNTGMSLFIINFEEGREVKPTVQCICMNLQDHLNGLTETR
Chain of RRAGC C377 (Q9HB90) (Q9HB90 2-399 limits assumed): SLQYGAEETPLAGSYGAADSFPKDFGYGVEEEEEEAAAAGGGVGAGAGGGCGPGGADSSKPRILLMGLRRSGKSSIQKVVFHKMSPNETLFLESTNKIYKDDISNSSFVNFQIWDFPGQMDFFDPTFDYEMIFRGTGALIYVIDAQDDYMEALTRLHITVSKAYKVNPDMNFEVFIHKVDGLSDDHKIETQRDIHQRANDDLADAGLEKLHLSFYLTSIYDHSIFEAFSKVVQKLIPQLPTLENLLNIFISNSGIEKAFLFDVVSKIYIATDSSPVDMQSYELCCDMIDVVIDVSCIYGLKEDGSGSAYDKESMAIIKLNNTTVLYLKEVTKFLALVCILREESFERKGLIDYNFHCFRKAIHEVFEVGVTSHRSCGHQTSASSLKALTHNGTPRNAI
Chain of RRAGC C377 (Q9HB90) (Q7L523 whole entry partner, the tested form may be a part): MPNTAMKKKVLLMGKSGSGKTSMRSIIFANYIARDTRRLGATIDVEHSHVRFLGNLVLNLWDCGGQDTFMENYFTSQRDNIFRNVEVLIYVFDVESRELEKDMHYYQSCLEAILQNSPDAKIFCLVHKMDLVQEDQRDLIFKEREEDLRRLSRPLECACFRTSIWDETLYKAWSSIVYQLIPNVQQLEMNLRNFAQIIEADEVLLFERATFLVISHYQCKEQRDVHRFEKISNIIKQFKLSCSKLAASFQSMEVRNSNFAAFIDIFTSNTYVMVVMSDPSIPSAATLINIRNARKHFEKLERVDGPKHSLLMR

Compound: COC(=O)/C=C/C(=O)OC [DMF, dimethyl fumarate]
pro-inflammatory cytokine release [1]: inhibits | IA-alkyne reactivity of PKCθ C322 (PKCθ C322): unaffected | IA-alkyne reactivity of PRKDC C4045 (PRKDC C4045; 50 μM, 4 h): blocked | R value (DMSO/DMF) (PRKDC C4045; DMF 50 μM 1h): 4.14 | R value (DMSO/DMF) (PRKDC C4045; DMF 50 μM 2h): 10.53 | cellular GSH content [2]: significant decrease | blockade of T cell activation (primary human T cells; 10 μM): marginal/negligible | blockade of T cell activation (primary human T cells; 25 μM): partial | blockade of T cell activation (primary human T cells; 50 μM): near-complete inhibition | expression of CD25 (primary human T cells; [3]): blocked | expression of CD69 (primary human T cells; [3]): blocked | inhibitory effect on T cell activation (primary human T cells; drug added six hours after stimulation): completely ablated | inhibitory effect on T cell activation (primary human T cells; drug added two hours after stimulation): reduced

isoTOP-ABPP reactivity profile (ratio) 2_200 μM_in-situ_231 (SMAD2 C81 (Q15796)): 20.0 | isoTOP-ABPP reactivity profile (ratio) 2_200 μM_in-situ_231 (RRAGC C377 (Q9HB90)): 3.3
Compound: COc1ccc2c(c1)CCCN2C(=O)CCl [compound 2]

plateau of inhibition of TIGAR substrate turnover (TIGAR): 70%
Compound: C=CC(=O)N(c1ccccc1)c1ccc(Br)cc1 [compound 5]
